Measured values as given in patent US11980620B2, “Compounds and methods for treatment of Diamond Blackfan anemia” (THE CHILDREN'S MEDICAL CENTER CORPORATION, priority 2017, dated 2024).

Legend:
[1] = tested on: erythroid cells from CB CD34+; test: Enucleation efficiency of GLYA+ cells at end of stage III; assay type: cell-based, human; conditions: treatment during stages I-III; vehicle 2.4%±1.2
Method: (FIG. 12A) Erythroid differentiation of control and DBA CD34-5F cells treated with DMSO vehicle or SMER28 (10 μM) during the initial CD34^+ progenitor phase (day 0-4 of differentiation), or stage I of erythroid culture (day 4-9 of differentiation). Percent of erythroid cells after stage I of differentiation is indicated in top left for each condition, and quantitated in (FIG. 12B). Data are shown as mean f s.e.m. of 4 independent experiments, with 2 control and 4 DBA iPSCs. (FIG. 12C) Same as (FIG. 12A) for CB CD34+ cells transduced with shRPS19 hairpins. GFP^+ RPS19^sh and GFP^− control cells were quantitated separately. […] (FIG. 12D) RBC pellets at the end of stage III initiated with equal numbers of CD34-5F or CB progenitors. SMER28 was added at […]. (FIG. 12E) May-Grunwald-Giemsa stain of erythroid cells from CB CD34^+ at end of stage III. Arrows indicate enucleated RBCs, which are quantitated by flow cytometry. (FIG. 12F) Quantitation of the enucleation efficiency (left) of GLYA^+ cells. Data in FIGS. 12E-12F represents 3 independent experiments. For all panels, *p<0.05, **p<0.01.
Erythroblasts proliferate rapidly to give rise to terminally differentiated RBCs. […]

[2] = tested on: K562 erythroleukemia cells transduced with shRPS19; test: Autophagy induction (p62, LC3-I, LC3-II protein levels) in K562 cells transduced with shRPS19; assay type: cell-based, human
Method: (FIG. 13A) Induction of autophagy by SMER28 (40 μM) monitored by protein levels of p62, LC3-I, and LC3-II after 24 hours. Cells were also treated with 5-FU (100 nM) to induce autophagy, or inhibitor of transcription actinomycin D (ActD; 100 nM). (FIG. 13B) Induction of autophagy by SMER28 (40 μM) monitored by protein levels of p62, LC3-I, and LC3-II after 24 hours treatment with or without lysosomal blockade with bafilomycin A (200 nM for 4 hours). Untreated samples are shown at higher exposure, to capture dynamic changes in the LC3-II levels. Rapamycin (200 nM) is a positive control. LC3-II levels relative to GAPDH are quantitated on the right. (FIG. 13C) Erythroid differentiation of CD34-5F cells transduced with shRNAs for luciferase (LUC) or ATG5±SMER28. Representative flow plots and quantitation showing the number of erythroid cells induced by SMER28 (10 μM) normalized to DMSO. 2 control luciferase shRNAs and 2 ATG5 shRNAs are included (knockdown efficiency in hematopoietic cells of 58% and 50%, respectively), each with 2 independent lines; p=0.005, 3 independent experiments. (FIG. 13D) Atg5 deficiency causes anemia in zebrafish. Wild-type zebrafish embryos were treated with 1.6 ng atg5 or missense morpholino, and hemoglobin staining was visualized with benzidine staining at 40 hpf with SMER28 (1 μM). Representative images (left), and quantitation (right) with embryos grouped by high, medium, and low levels of benzidine staining.
SMER28 was identified as an mTOR-independent inducer of autophagy, by synergizing with rapamycin to promote clearance of protein aggregates in models of neurodegenerative disease (Sarkar et al., 2007; Tian et al., 2011). Autophagy is a pro-survival pathway induced by a variety of stresses, such as nutrient limitation or protein aggregation. Autophagy is required for clearance of mitochondria during terminal erythroid maturation (Mortensen and Simon, 2010), but has not been linked with earlier stages of erythropoiesis. To determine if SMER28 modulates autophagy in erythroid cells, we interrogated the levels of p62 and LC3 in K562 erythroleukemia cells transduced with shRPS19. SMER28 reduced p62 and increased the levels of […] LC3-II isoform associated with autophagosomes (FIG. 13A). […] To measure autophagic flux, we monitored LC3-II levels after blocking lysosomal fusion with bafilomycin A. SMER28 increased LC3-II levels following lysosomal blockade, similarly to the mTOR inhibitor rapamycin (FIG. 13B).
Drug treatments. SMER28 was purchased from Tocris and diluted in 10 mM aliquots in DMSO. The final concentration for CD34-5F and CB CD34^+erythroid treatments was 0.2-10 μM as indicated in the text. The final concentration for K562 cell treatments was 20-40 μM. […]

C=CCNc1ncnc2ccc(Br)cc12 [SMER28, 6-Bromo-N-2-propenyl-4-quinazolinam]
efficiency of enucleation [1]: 5.6%±1.6 | LC3-II levels following lysosomal blockade (autophagic flux) ([2]; SMER28 40 μM 24 hours, bafilomycin A 200 nM for 4 hours): increased | levels of LC3-II isoform associated with autophagosomes ([2]; SMER28 40 μM, 24 hours): increased | p62 protein level ([2]; SMER28 40 μM, 24 hours): reduced
